Data as given in US12502434B2, “Compound comprising EZH2 inhibitor and E3 ligase binder and pharmaceutical composition for preventing or treating EZH2-associated disease comprising same as active ingredient” (DAEGU-GYEONGBUK MEDICAL INNOVATION FOUNDATION, priority 2019, dated 2025).
Read-outs that look alike come from different tables or passages of the source.

Legend:
[1] = biological target: T1, EZH2 protein in LS174T cells (Homo sapiens, UniProt Q15910); test: Proteolytic effect in colorectal cancer cells (Western blotting); type: cell-based
T1 construct: endogenous in cells; host or cells: LS174T
Protocol: After 72 hours of the treatment, the cells were collected and lysed using RIPA buffer (50 mM Tris, pH 7.5, 150 mM NaCl, 1% Triton X-100, 0.1% SDS, […], 0.5% deoxycholate, and protease inhibitor cocktail), followed by sonication (30 sec on/30 sec off, 5 cycles) to prepare a cell lysate.

[2] = biological target: T2, HiBiT-EZH2 in EZH2-HiBiT HEK293T cells (Homo sapiens, UniProt Q15910); test: EZH2 proteolytic activity using Nano-BiT assay system; type: cell-based; conditions: for EZH2 proteolytic ability compared to comparative compounds 1, 2 and 3 (in words): 1 μM; for Relative EZH2 degradation rate, 1 μM(%) Average: 72 hours, n = 3
T2 construct: endogenous in cells; host or cells: HEK293T (CRISPR/Cas9 HiBiT knock-in at the EZH2 locus)
Protocol: In order to evaluate the EZH2 proteolytic activity of the compound according to the present invention, the following experiment was performed. Specifically, the CRISPR/Cas9 technique was used to construct a stable cell line of HiBiT-EZH2. […] After harvesting the cells, the cell solution was prepared at a concentration of 1 cell/100 ul, and 100 ul of the cell solution was dispensed into each well of a 96-well plate and seeded so that a single cell could proliferate in each well. After proliferating the cells for 2-3 weeks, some of the proliferated cells from one cell were recovered and gDNA was extracted. To confirm that the HiBiT sequence was correctly inserted into the EZH2 target, deep sequencing was performed to select the cells containing the HiBiT sequence, and after further verification through Sanger sequencing, the final EZH2-HiBiT HEK293T cells were obtained. 1×10^3 of the obtained cells were placed in a 96-well white plate, and after 18 hours of stabilization, each well was treated with the example compound at a final concentration of 1 μM. The control group was treated with the same concentration of DMSO which was used as the solvent of the example compound. After 72 hours of the treatment, an assay was performed using Nano-Glo HiBiT Lytic Detection System ([…], Promega). After removing the medium, 100 μL of lysis buffer, 1 μL of LgBiT protein and 1 μL of substrate buffer were added to each well. Then, the plate was reacted in a shaking incubator at 700 rpm for 2 minutes, and then the mixture of each well was pipetted to mix well. Thereafter, the plate was reacted at room temperature for 10 minutes while light was blocked, and luminescence was measured.

T1 sequence (Q15910 whole entry): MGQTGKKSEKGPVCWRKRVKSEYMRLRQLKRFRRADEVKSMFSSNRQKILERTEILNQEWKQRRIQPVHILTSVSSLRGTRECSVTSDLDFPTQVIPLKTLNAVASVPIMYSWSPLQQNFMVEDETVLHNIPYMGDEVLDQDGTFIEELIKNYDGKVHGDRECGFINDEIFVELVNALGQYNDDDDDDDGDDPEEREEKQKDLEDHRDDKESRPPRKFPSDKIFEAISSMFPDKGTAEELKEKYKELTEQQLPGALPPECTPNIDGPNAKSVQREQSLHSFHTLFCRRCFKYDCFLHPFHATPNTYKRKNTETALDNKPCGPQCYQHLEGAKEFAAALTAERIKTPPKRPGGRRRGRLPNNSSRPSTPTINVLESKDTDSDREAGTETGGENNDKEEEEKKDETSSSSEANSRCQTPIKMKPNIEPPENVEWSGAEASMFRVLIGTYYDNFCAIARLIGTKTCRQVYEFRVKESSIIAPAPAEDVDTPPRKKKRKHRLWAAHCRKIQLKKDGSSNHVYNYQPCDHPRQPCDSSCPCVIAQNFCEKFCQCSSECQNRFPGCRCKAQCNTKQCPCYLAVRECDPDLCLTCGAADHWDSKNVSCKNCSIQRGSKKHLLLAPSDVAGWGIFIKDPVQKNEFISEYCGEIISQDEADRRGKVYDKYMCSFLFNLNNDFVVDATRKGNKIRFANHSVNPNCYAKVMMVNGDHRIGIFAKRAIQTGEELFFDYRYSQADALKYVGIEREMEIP
T1 sequence (O75530 whole entry partner): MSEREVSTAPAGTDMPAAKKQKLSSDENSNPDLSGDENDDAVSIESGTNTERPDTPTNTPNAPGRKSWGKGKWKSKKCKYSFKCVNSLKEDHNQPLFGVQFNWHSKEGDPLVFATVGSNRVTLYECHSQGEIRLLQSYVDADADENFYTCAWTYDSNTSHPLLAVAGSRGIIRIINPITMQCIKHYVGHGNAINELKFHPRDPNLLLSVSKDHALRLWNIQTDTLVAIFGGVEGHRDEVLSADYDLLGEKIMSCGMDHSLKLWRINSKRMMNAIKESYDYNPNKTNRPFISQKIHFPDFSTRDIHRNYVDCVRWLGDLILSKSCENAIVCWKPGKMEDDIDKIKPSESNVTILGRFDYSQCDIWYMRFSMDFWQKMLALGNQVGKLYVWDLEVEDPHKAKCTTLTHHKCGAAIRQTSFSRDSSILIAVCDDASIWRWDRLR
T1 sequence (Q15022 whole entry partner): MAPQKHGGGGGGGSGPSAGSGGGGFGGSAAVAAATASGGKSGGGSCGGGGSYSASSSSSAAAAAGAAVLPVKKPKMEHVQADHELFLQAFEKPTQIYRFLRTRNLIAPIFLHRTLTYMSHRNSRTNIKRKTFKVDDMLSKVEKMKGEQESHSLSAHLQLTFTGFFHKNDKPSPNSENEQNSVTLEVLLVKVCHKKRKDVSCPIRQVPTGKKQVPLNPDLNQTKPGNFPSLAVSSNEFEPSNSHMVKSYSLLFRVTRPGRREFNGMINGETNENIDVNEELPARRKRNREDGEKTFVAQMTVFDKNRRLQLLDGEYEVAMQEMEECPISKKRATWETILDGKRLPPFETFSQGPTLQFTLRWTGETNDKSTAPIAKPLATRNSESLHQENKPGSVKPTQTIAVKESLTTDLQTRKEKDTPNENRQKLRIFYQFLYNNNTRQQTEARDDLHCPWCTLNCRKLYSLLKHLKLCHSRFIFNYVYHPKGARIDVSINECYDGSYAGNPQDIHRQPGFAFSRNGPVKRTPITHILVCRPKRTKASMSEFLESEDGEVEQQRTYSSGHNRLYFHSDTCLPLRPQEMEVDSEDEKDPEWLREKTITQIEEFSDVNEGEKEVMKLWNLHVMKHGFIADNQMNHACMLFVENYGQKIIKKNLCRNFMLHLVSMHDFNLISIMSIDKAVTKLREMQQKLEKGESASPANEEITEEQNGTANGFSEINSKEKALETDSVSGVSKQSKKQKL
T2 sequence (Q15910 whole entry): as the sequence (Q15910 whole entry) above
T2 sequence (O75530 whole entry partner): as the sequence (O75530 whole entry partner) above
T2 sequence (Q15022 whole entry partner): as the sequence (Q15022 whole entry partner) above

Structure (SMILES) | Grade (percent value of the protein degradation when treated with 1 μM) ([1]; EZH2 protein, LS174T cells, 1 μM, 72 hours) | %, degradation at 1 uM ([1]; EZH2 protein, LS174T cells, 1 uM, 72 hours, Western blotting) | effect of degrading EZH2 protein when treated to colorectal cancer cells (in words) ([1]; LS174T cells) | EZH2 proteolytic ability compared to comparative compounds 1, 2 and 3 (in words) [2] | Relative EZH2 degradation rate, 1 μM(%) Average [2] | %, degradation at 1 uM [1] | EZH2 proteolytic effect by Western blotting (figure, in words) [1] | Grade (percent value of the protein degradation when treated with 1 μM) [1]
CCN(c1cc(-c2ccc(CN3CCN(CC(=O)NCCCCCOCCCOCC(=O)N[C@H](C(=O)N4C[C@H](O)C[C@H]4C(=O)NCc4ccc(-c5scnc5C)cc4)C(C)(C)C)CC3)cc2)cc(C(=O)NCc2c(C)cc(C)[nH]c2=O)c1C)C1CCOCC1 [Example 37, (2S,4R)-1-((S)-2-(tert-butyl)-18-(4-((3′-(((4,6-dimethyl-2-oxo-1,2-dihydropyridine-3-yl)methyl)carbamoyl)-5′-(ethyl(tetrahydro-2H-pyran-4-yl)amino)-4′-methyl-[1,1′-biphenyl]-4-yl)methyl)piperazine-1-yl)-4,17-dioxo-6,10-dioxa-3,16-diazaoctadecanoyl)-4-hydroxy-N-(4-(4-methylthiazole-5-yl)benzyl)pyrrolidine-2-carboxamide] | A (>75%) | 92.73% | excellent effects | significantly better EZH2 proteolytic ability | 62.9% | – | – | –
CCN(c1cc(-c2ccc(CN3CCN(CC(=O)NCCCCCCOCC(=O)N[C@H](C(=O)N4C[C@H](O)C[C@H]4C(=O)NCc4ccc(-c5scnc5C)cc4)C(C)(C)C)CC3)cc2)cc(C(=O)NCc2c(C)cc(C)[nH]c2=O)c1C)C1CCOCC1 [Example 46, (2S,4R)-1-((S)-2-(2-((6-(2-(4-((3′-(((4,6-dimethyl-2-oxo-1,2-dihydropyridine-3-yl)methyl)carbamoyl)-5′-(ethyl(tetrahydro-2H-pyran-4-yl)amino)-4′-methyl-[1,1′-biphenyl]-4-yl)methyl)piperazine-1-yl)acetamido)hexyl)oxy)acetamido)-3,3-dimethylbutanoyl)-4-hydroxy-N-(4-(4-methylthiazole-5-yl)benzyl)pyrrolidine-2-carboxamide] | – | – | – | significantly better EZH2 proteolytic ability | 65.8% | 83.76% | confirming the EZH2 proteolytic effect | A (key: A: >75%; B: 50-75%; C: 25-50%; D: <25%)
